What was measured:
[1] = tested on: MSSA or MRSA strains; assay: Neutropenic-mouse thigh infection model, MSSA or MRSA strains, 72 h post-infection; assay type: in vivo, Staphylococcus aureus; conditions: independently of their MIC
Description: Methods: Thigh infection was established for 14 clinical SA isolates (3 MSSA and 11 MRSA; MICs 0.0015 to 2 μg/mL) in neutropenic CD-1 mice (n=3/group) with 5×10^5 colony forming units (CFU) of cells. Single intravenous doses of ORI (0.5 to 40 mg/kg) were tested against one MSSA and one MRSA strain. […] Both thighs were harvested and CFU counts were evaluated after 24 h (single doses) or 72 h (HEQ doses) treatment.
In vivo studies: All studies were performed in accordance with protocols that were approved by the Institutional Animal Care and Use Committee. Thigh infection was established for 14 clinical S. aureus isolates in neutropenic CD-1 mice (19-21 g, n=3/group) with 5×10^5 colony forming units (CFU) of cells in both thighs. In the single dose-response study, the number of bacteria/thigh was monitored 24 h post-infection (PI). In the human equivalent (HEQ) dose-ranging study, the bacterial titer was determined in mouse thighs at 2, 4, 8, 12, 24, 48 and 72 h PI. Thighs were serially diluted and plated on Baird-Parker agar plates to determine the bacterial titer. The limit of detection was 1.69 Log10 CFU/thigh. Bacterial titer decreases were calculated (compared to starting inoculum) in thighs at 72 h PI for each HEQ dose regimen of ORI.
Antibiotherapy: 1) In the single dose response study, mice were treated intravenously (IV) with ORI at doses ranging from 0.4 to 40 mg/kg at lh PI. […]

[2] = tested on: MSSA; assay: Phase 2 cSSSI study: cure rate by baseline pathogen; assay type: in vivo, Staphylococcus aureus; conditions: MSSA at baseline
Description: (§1) The primary efficacy endpoint was the clinical response in the CE population at TOC, which occurred 20 to 28 days after study enrollment on Day 1. Clinical response was determined by the investigator as part of the end-of-therapy, TOC, and late follow-up procedures by assessing signs and symptoms including fever, pain, tenderness, erythema, induration, edema, purulent drainage, eschar, and devitalized tissue. A clinical response of cure, improvement, failure, or indeterminate was assigned at end-of-therapy and TOC by the investigator based on clinical signs and symptoms. At late follow-up, the investigator could assign the clinical response of relapse in addition to cure, improvement, or indeterminate. Only patients with a clinical response of cure or improvement at TOC were assessed for clinical response at late follow-up.
(§2) Cure was defined as resolution of purulent drainage, pain, edema, fever, erythema, tenderness, and induration. Serous drainage or aspirate and/or granulation tissue could be present. Improvement was defined as resolution of purulent drainage and, in the case of cellulitis, cessation of fever and pain. Residual erythema, edema, pain (in the case of wound or abscess), tenderness, and/or induration could be present as could serous drainage, granulation tissue, eschar, and/or devitalized tissue. Failure included any of the following: presence of purulent drainage (or aspirate) and/or fever; the unanticipated need for abscess drainage or removal of sutures (for treatment of infection)>48 hours after initiation of study therapy; or treatment with nonstudy systemic antibiotic having activity against gram-positive pathogen(s) for the primary infection site or use of topical antibiotics at the site of primary infection 24 hours or more after initiation of study medication therapy.
(§3) Blood and infection site cultures were obtained within three days of enrollment (often done at the time of enrollment). End-of-therapy, TOC, and late follow-up (or at early relapse) cultures were obtained from the infection site if clinically indicated. […] Specimens were cultured and pathogens were identified at each investigative site's certified laboratory. All isolated gram-positive pathogen(s) that were obtained from the infection site at baseline/randomization and up to and including the TOC time point were subcultured and sent to a central laboratory (Covance Clinical Laboratories, Indianapolis, Ind.) for confirmatory identification and susceptibility testing. In cases of discrepancy between the local and the central laboratory, central laboratory results were used.

[3] = tested on: MRSA; assay: as above; assay type: in vivo, Staphylococcus aureus; conditions: MRSA at baseline, TOC
Description: as §1, §2, §3

[4] = Phase 2 cSSSI study: safety and tolerability; assay type: in vivo, human
Description: A phase 2, multi-center, randomized, double-blind, parallel, active-comparator study in which three dose regimens of oritavancin were explored as a treatment for cSSSI due to gram-positive pathogens was conducted using: a daily dose (200 mg) administered for three to seven days, a single dose (1200 mg), and an infrequent dose (800 mg dose with option for an additional 400 mg on Day 5).
Patients were randomized through an interactive voice response system in a 1:1:1 ratio to receive either 1) oritavancin […] daily dose: 200 mg IV daily for 3 to 7 days as determined by the investigator based on clinical criteria, 2) oritavancin single dose: 1200 mg oritavancin IV on Day 1, or; 3) oritavancin infrequent dose: 800 mg IV on Day 1 with optional 400 mg IV on Day 5 as determined by investigator based on clinical criteria. During randomization patients were stratified by disease categories of wound infection, major abscess, and cellulitis. Placebo IV (5% dextrose in water) was given to maintain the blind.
Analyses were performed on four patient populations: intent-to-treat (ITT), modified intent-to-treat (MITT), clinically evaluable (CE) and microbiologically evaluable (ME). The ITT population included patients who were randomized to treatment and received any amount of study medication. Two patients who were potentially unblinded were excluded from the ITT population for all efficacy analyses. The MITT population included all ITT patients with a gram-positive pathogen isolated at baseline.

CN[C@H](CC(C)C)C(=O)N[C@H]1C(=O)N[C@@H](CC(N)=O)C(=O)N[C@H]2C(=O)N[C@H]3C(=O)N[C@H](C(=O)N[C@H](C(=O)O)c4cc(O)cc(O)c4-c4cc3ccc4O)[C@H](O[C@H]3C[C@](C)(N)[C@@H](O)[C@H](C)O3)c3ccc(c(Cl)c3)Oc3cc2cc(c3O[C@@H]2O[C@H](CO)[C@@H](O)[C@H](O)[C@H]2O[C@H]2C[C@](C)(NCc3ccc(-c4ccc(Cl)cc4)cc3)[C@@H](O)[C@H](C)O2)Oc2ccc(cc2Cl)[C@H]1O [Oritavancin, N-(4-(4-chlorophenyl)benzyl)A82846B]
Efficacy against MSSA or MRSA strains [1]: active against all tested strains
% of patients cured (cure and improvement) ([2]; 200 mg daily dose): 56.5%
% of patients cured (cure and improvement) ([2]; 800 mg infrequent dose): 68.8%
% of patients cured (cure and improvement) ([2]; 1200 mg single dose): 90.9%
% of patients cured (cure and improvement) ([3]; 200 mg daily dose): 78.3%
% of patients cured (cure and improvement) ([3]; 800 mg infrequent dose): 87.0%
% of patients cured (cure and improvement) ([3]; 1200 mg single dose): 73.0%
Patients with a serious adverse event ([4]; all groups (25 patients)): 8.3%
Early discontinuation of study medication for lack of efficacy ([4]; all three treatment groups together (10/302)): 3.3%
Adverse events being mild ([4]; daily dose group): 51.8%
Adverse events considered mild or moderate in intensity ([4]; daily dose group): 85.7%
Incidence of serious adverse events ([4]; daily dose group): 11%
Patients who discontinued study medication due to an adverse event ([4]; daily dose group): 3.0%
Patients with phlebitis assessed as related to study medication ([4]; daily dose group): 3.0%
Patients who died during the study (n/total) ([4]; daily dose group, none related to study medication): 3/100
Adverse events being mild ([4]; infrequent dose group): 60.3%
Adverse events considered mild or moderate in intensity ([4]; infrequent dose group): 95.2%
Incidence of serious adverse events ([4]; infrequent dose group): 6.8%
Patients who discontinued study medication due to an adverse event ([4]; infrequent dose group): 1.0%
Patients with phlebitis assessed as related to study medication ([4]; infrequent dose group): 8.7%
Patients with related phlebitis ([4]; infrequent dose group, 800 mg only): 11.8%
Patients with related phlebitis ([4]; infrequent dose group, 800 mg plus the 400 mg dose): 7.2%
Patients who died during the study (n/total) ([4]; infrequent dose group, none related to study medication): 2/103
Adverse events being mild ([4]; single dose group): 58.2%
Adverse events considered mild or moderate in intensity ([4]; single dose group): 94.5%
Incidence of serious adverse events ([4]; single dose group): 7.1%
Patients who died during the study (n/total) ([4]; single dose group): 0/99
Patients who discontinued study medication due to an adverse event ([4]; single dose group): 3.0%
Patients with phlebitis assessed as related to study medication ([4]; single dose group): 4.0%
Serious adverse event investigator-assessed as related to study medication ([4]; single dose group (dyspnoea; hypersensitivity)): Two
Blood creatine phosphokinase (CPK) increase ([4]; single dose group compared to the daily and infrequent dose groups): higher incidence

From US8420592B2, “Methods of treatment using single doses of oritavancin” (The Medicines Company, priority 2008, dated 2013)
